Experimental data: patent publication US6653081B2, “Methods for monitoring antiretroviral therapy and guiding therapeutic decision in the treatment of HIV/AIDS” (ViroLogic, Inc., priority 2000, dated 2003)
“Also recorded” adds a separate entry of the source.

system: RTV-007130; assay: Phenotypic susceptibility assay, RTV-007130; type: cell-based, HIV; conditions: patient 007130
From the text: (§1) The resistance test vectors containing a functional luciferase gene cassette were constructed and host cells were transfected with the resistance test vector DNA. The resistant test vectors contained patient-derived reverse transcriptase and protease sequences that were either susceptible or resistant to the antiretroviral agents, such as nucleoside reverse transcriptase inhibitors, (NRTIs) non-nucleoside reverse transcriptase inhibitors […] protease inhibitors. The resistance test vector viral particles produced by transfecting the resistance test vector DNA into host cells, either in the presence or absence of PRIs, were used to infect target host cells grown either in the absence of NRTIs or NNRTIs, or in the presence of increasing concentrations of the drug. The amount of luciferase activity produced in infected target host cells in the presence of varying concentrations of drug was compared to the amount of luciferase produced in infected target host cells in the absence of drug. “Drug resistance” was measured as the amount of drug required to inhibit by 50% the luciferase activity detected in the absence of drug (inhibitory concentration 50%, IC50). The IC50 values were determined by plotting percent drug inhibition vs. log10 drug concentration. Stimulation of viral replication was measured as the percent increase in luciferase activity detected when infection occurs in the presence of drug as compared to in the absence of drug.
(§2) Host cells were seeded in 10-cm-diameter dishes and were transfected several days after plating with resistance test vector plasmid DNA and the envelope expression vector. Transfections were performed using a calcium-phosphate precipitation procedure. The cell culture media containing the DNA precipitate was replaced with fresh medium, from one to 24 hours, after transfection. Cell culture media containing resistance test vector viral particles was harvested one to four days after transfection and was passed through a […] filter before being used to infect target host cells, or being stored at −80° C. HIV capsid protein (p24) levels in the harvested cell culture media were determined by an EIA method as described by the manufacturer (SAIC; Frederick, Md.). Before infection, target cells (293 and 293/T) were plated in cell culture media. Control infections were performed using cell culture media from mock transfections (no DNA) or transfections containing the resistance test vector plasmid DNA without the envelope expression plasmid. One to three or more days after infection, the media was removed and cell lysis buffer (Promega) was added to each well. Cell lysates were assayed for luciferase activity (FIG. 3). The inhibitory effect of the drug was determined using the following equation:
(§3) % luciferase inhibition=1−(RLUluc[drug]÷RLUluc)×100
(§4) where RLUluc [drug] is the Relative Light Unit of luciferase activity in infected cells in the presence of drug, and RLUluc is the Relative Light Unit of luciferase activity in infected cells in the absence of drug. IC50values were obtained from the sigmoidal curves that were generated from the data by plotting the percent inhibition of luciferase activity vs. the log10 drug concentration. The percent luciferase stimulation is the negative of the % inhibition calculated using the formula above.
A resistance test vector was constructed as described in Example 1 from a virus sample obtained from patient 007130. The prior and current treatment regimens are unknown. Isolation of viral RNA and RT/PCR was used to generate a patient derived segment (PDS) that comprised viral sequences coding for all of PR and aa 1-313 of RT. The PDS were inserted into an indicator gene viral vector to generate a resistance test vector designated RTV-007130. RTV-007130 was then tested in a phenotypic assay to determine accurately and quantitatively the level of susceptibility to a panel of anti-retroviral drugs. […]

SMILES | drug-dependent stimulation of viral replication [%]
O=C1Nc2ccc(Cl)cc2[C@@](C#CC2CC2)(C(F)(F)F)O1 [efavirenz] | ~40
CC(C)Nc1cccnc1N1CCN(C(=O)c2cc3cc(NS(C)(=O)=O)ccc3[nH]2)CC1 [delavirdine] | ~30
Cc1ccnc2c1NC(=O)c1cccnc1N2C1CC1 [nevirapine] | ~50

same assay, conditions: patient 007130; 245 with multiple other mutations

SMILES | decrease in susceptibility [fold]
O=C1Nc2ccc(Cl)cc2[C@@](C#CC2CC2)(C(F)(F)F)O1 [efavirenz] | > 450
CC(C)Nc1cccnc1N1CCN(C(=O)c2cc3cc(NS(C)(=O)=O)ccc3[nH]2)CC1 [delavirdine] | > 250
Cc1ccnc2c1NC(=O)c1cccnc1N2C1CC1 [nevirapine] | > 600

system: RTV-V245T; assay: Phenotypic susceptibility assay, RTV-V245T; type: cell-based, HIV-1; conditions: site-directed V245T alone
From the text: as §1, §2, §3, §4
(§5) A resistance test vector containing a single mutation, V245T, (RTV-V245T) was constructed and tested in the phenotypic assay described earlier. The results were compared to those determined using a genetically defined resistance test vector that was wild type at position 245. We determined the pattern of phenotypic susceptibility to the NNRTIs, delavirdine, nevirapine and efavirenz, in RTV-V245E.

SMILES | drug-dependent stimulation of viral replication | reductions in susceptibility compared to wild type control RTV
O=C1Nc2ccc(Cl)cc2[C@@](C#CC2CC2)(C(F)(F)F)O1 [efavirenz] | no drug-dependent stimulation | no reductions; also recorded: no significant reduction
CC(C)Nc1cccnc1N1CCN(C(=O)c2cc3cc(NS(C)(=O)=O)ccc3[nH]2)CC1 [delavirdine] | no drug-dependent stimulation | no reductions; also recorded: no significant reduction
Cc1ccnc2c1NC(=O)c1cccnc1N2C1CC1 [nevirapine] | no drug-dependent stimulation | no reductions; also recorded: no significant reduction

system: RTV-I135T/V245T; assay: Phenotypic susceptibility assay, RTV-I135T/V245T; type: cell-based, HIV-1; conditions: site-directed I135T + V245T
From the text: as §1, §2, §3, §4
as §5, with “two mutations, I135T and V245T (RTV-I135T/V245T)” for “a single mutation, V245T, (RTV-V245T)”, “positions 135 and” for “position”, “RTV-I135T/V245T.” for “RTV-V245E.”

SMILES | drug-dependent stimulation of viral replication | reductions in susceptibility compared to wild type control RTV [fold]
O=C1Nc2ccc(Cl)cc2[C@@](C#CC2CC2)(C(F)(F)F)O1 [efavirenz] | no drug-dependent stimulation | 2.4
CC(C)Nc1cccnc1N1CCN(C(=O)c2cc3cc(NS(C)(=O)=O)ccc3[nH]2)CC1 [delavirdine] | ~10% | 2.5
Cc1ccnc2c1NC(=O)c1cccnc1N2C1CC1 [nevirapine] | ~10% | 4

system: RTV-1033-3/227F; assay: Phenotypic susceptibility assay, RTV-1033-3/227F; type: cell-based, HIV; conditions: RTV-1033-3 with F227L reverted
From the text: as §1, §2, §3, §4
(§6) A resistance test vector containing all of the mutations present in RTV-1033-3 except for F227L (RTV-1033-3/227F) was constructed and tested using the phenotypic assay described earlier. The results were compared to those determined using the parent RTV-1033-3. We determined the pattern of phenotypic susceptibility to the NNRTIs, delavirdine, nevirapine and efavirenz, in the reverted vector, RTV-1033-3/227F.

SMILES | drug-dependent stimulation of viral replication [%] | reductions in susceptibility compared to wild type control RTV [fold]
O=C1Nc2ccc(Cl)cc2[C@@](C#CC2CC2)(C(F)(F)F)O1 [efavirenz] | ~100 | 18
CC(C)Nc1cccnc1N1CCN(C(=O)c2cc3cc(NS(C)(=O)=O)ccc3[nH]2)CC1 [delavirdine] | ~100 | 72
Cc1ccnc2c1NC(=O)c1cccnc1N2C1CC1 [nevirapine] | ~120 | > 600

system: RTV-1033-3; assay: Phenotypic susceptibility assay, RTV-1033-3; type: cell-based, HIV; conditions: single clone from the RTV-1033 pool
From the text: as §1, §2, §3, §4
A single clone (RTV-1033-3) was obtained from the patient-derived RTV pool that had mutations and phenotypic patterns of NNRTI susceptibility and drug-dependent stimulation of viral replication characteristic of the RTV-1033 pool. The RTV-1033-3 had the following mutations present in the revere transcriptase: V35I, D67N, T69D, K70R, V106A, D123G, V189L, T200A, I202T, H208Y, R211K, T215F, D218E, K219Q, H221Y, L228H, L283I, R284K, T286A, V293I and E297K.

SMILES | drug-dependent stimulation of viral replication [%] | reductions in susceptibility [fold]
O=C1Nc2ccc(Cl)cc2[C@@](C#CC2CC2)(C(F)(F)F)O1 [efavirenz] | 180 | > 450
CC(C)Nc1cccnc1N1CCN(C(=O)c2cc3cc(NS(C)(=O)=O)ccc3[nH]2)CC1 [delavirdine] | 190 | 27
Cc1ccnc2c1NC(=O)c1cccnc1N2C1CC1 [nevirapine] | 200 | > 600

system: RTV-V245E; assay: Phenotypic susceptibility assay, RTV-V245E; type: cell-based, HIV-1; conditions: site-directed V245E alone
From the text: as §1, §2, §3, §4
as §5, with “V245E, (RTV-V245E)” for “V245T, (RTV-V245T)”

SMILES | drug-dependent stimulation of viral replication | reductions in susceptibility compared to wild type control RTV
O=C1Nc2ccc(Cl)cc2[C@@](C#CC2CC2)(C(F)(F)F)O1 [efavirenz] | no drug-dependent stimulation | no reductions; also recorded: no significant reduction
CC(C)Nc1cccnc1N1CCN(C(=O)c2cc3cc(NS(C)(=O)=O)ccc3[nH]2)CC1 [delavirdine] | no drug-dependent stimulation | no reductions; also recorded: no significant reduction
Cc1ccnc2c1NC(=O)c1cccnc1N2C1CC1 [nevirapine] | no drug-dependent stimulation | no reductions; also recorded: no significant reduction

system: RTV-1033-3/106V/189V/227F; assay: Phenotypic susceptibility assay, RTV-1033-3/106V/189V/227F; type: cell-based, HIV; conditions: RTV-1033-3 with V106A, V189L and F227L reverted
From the text: as §1, §2, §3, §4
as §6, with “for V106A, V189L and” for “for”, “(RTV-1033-3/106V/189V/227F)” for “(RTV-1033-3/227F)”, “RTV-1033-3/106V/189V/227F.” for “RTV-1033-3/227F.”

SMILES | drug-dependent stimulation of viral replication [%] | reductions in susceptibility compared to wild type control RTV [fold]
O=C1Nc2ccc(Cl)cc2[C@@](C#CC2CC2)(C(F)(F)F)O1 [efavirenz] | ~30 | 2
CC(C)Nc1cccnc1N1CCN(C(=O)c2cc3cc(NS(C)(=O)=O)ccc3[nH]2)CC1 [delavirdine] | ~35 | 2.7
Cc1ccnc2c1NC(=O)c1cccnc1N2C1CC1 [nevirapine] | ~40 | 2.8
